# Test results taken from PMC10536063 (ACS Omega, 2023).
# What was measured:
# [1] = test system: MCF-10A (normal breast) cells; test: MTT cytotoxicity bioassay against normal MCF-10A cells; assay type: cell-based; details: for IC50: Homo sapiens, MCF-10A, 48 h, read-out: IC50 ± SD, MCF-10A; for cytotoxicity versus normal MCF-10A cells (in words): MTT
# EGFR kinase = EGFR kinase (Homo sapiens, UniProt P00533); test: EGFR-TK kinase inhibitory assay; assay type: biochemical
# CDK-2 kinase = CDK-2 kinase (Homo sapiens, UniProt P24941); test: CDK-2 luminescence kinase inhibitory assay; assay type: biochemical
# [2] = test system: MCF-7 (breast cancer cells); test: MTT cytotoxicity bioassay against MCF-7; assay type: cell-based, human; details: read-out: IC50 ± SD, MCF-7, 48 h, mean ± SD, n = 3
# Sequence of EGFR kinase (P00533 25-1210): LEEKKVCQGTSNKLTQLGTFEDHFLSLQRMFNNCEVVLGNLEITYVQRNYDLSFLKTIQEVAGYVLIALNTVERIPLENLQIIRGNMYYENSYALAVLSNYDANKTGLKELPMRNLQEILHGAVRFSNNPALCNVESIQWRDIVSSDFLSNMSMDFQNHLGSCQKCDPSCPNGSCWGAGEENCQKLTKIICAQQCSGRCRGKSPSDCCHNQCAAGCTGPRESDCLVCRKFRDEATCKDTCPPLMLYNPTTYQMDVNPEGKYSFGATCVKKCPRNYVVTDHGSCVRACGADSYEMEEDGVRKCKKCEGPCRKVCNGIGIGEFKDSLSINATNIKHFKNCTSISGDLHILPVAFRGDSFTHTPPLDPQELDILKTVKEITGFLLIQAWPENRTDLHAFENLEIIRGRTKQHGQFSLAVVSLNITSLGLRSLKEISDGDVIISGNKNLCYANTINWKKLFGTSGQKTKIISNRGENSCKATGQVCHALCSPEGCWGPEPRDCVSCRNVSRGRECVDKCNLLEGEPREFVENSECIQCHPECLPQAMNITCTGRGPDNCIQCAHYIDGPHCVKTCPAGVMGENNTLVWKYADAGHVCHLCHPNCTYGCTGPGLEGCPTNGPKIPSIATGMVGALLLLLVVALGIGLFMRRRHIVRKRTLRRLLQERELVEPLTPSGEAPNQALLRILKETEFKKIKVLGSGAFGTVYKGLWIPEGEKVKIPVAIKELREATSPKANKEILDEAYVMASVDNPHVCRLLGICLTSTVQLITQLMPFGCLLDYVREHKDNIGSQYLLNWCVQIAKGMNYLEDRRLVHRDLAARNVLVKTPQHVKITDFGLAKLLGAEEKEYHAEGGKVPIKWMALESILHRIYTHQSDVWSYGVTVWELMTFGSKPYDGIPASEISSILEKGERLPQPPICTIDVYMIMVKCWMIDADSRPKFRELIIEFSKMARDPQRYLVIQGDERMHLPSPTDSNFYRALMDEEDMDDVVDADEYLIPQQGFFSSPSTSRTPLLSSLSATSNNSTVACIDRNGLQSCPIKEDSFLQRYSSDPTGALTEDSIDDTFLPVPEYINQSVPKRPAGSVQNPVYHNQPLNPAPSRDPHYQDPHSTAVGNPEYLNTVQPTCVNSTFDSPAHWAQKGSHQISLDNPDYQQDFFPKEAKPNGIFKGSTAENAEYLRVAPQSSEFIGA
SMILES,IC50 [1],cytotoxicity versus normal MCF-10A cells (in words) [1],IC50 (EGFR kinase),IC50 (CDK-2 kinase),IC50 [2]
"O=C(c1ccc2ccccc2c1)c1cn(-c2ccccc2)nc1C(=O)CBr [Compound 2, 3-Bromoacetyl-4-(2-naphthoyl)-1-phenyl-1H-pyrazole]",37.5 ± 1.9 µM,,,,
"O=C(c1ccc2ccccc2c1)c1cn(-c2ccccc2)nc1C1=Nn2cnnc2SC1 [Compound 4a, 6-(4-(2-Naphthoyl)-1-phenyl-1H-pyrazol-3-yl)-7H-[1,2,4]triazolo[3,4-b][1,3,4]thiadiazine]",≥ 50 µM,,,,
"O=C(c1ccc2ccccc2c1)c1cn(-c2ccccc2)nc1C1=Nn2c(nnc2-c2ccccc2)SC1 [Compound 4b, 3-Phenyl-6-(4-(2-naphthoyl)-1-phenyl-1H-pyrazol-3-yl)-7H-[1,2,4]triazolo[3,4-b][1,3,4]-thiadiazine]",≥ 50 µM,safe,0.0717 ± 0.0021 µM,0.114 ± 0.0029 µM,3.16 ± 0.29 µM
"O=C(c1ccc2ccccc2c1)c1cn(-c2ccccc2)nc1C1=Nn2c(S)nnc2SC1 [Compound 4c, 6-(4-(2-Naphthoyl)-1-phenyl-1H-pyrazol-3-yl)-7H-[1,2,4]triazolo[3,4-b][1,3,4]thiadiazin-3-thiol]",46.7 ± 1.7 µM,safe,0.0896 ± 0.0024 µM,0.165 ± 0.00314 µM,
"O=C(c1ccc2ccccc2c1)c1cn(-c2ccccc2)nc1C1=Nn2c(SCCSc3nnc4n3N=C(c3nn(-c5ccccc5)cc3C(=O)c3ccc5ccccc5c3)CS4)nnc2SC1 [Compound 8a, 1,2-Bis((6-(4-(2-naphthoyl)-1-phenyl-1H-pyrazol-3-yl))-7H-[1,2,4]triazolo[3,4-b][1,3,4]-thiadiazin-3-ylthio)ethane]",38.9 ± 0.89 µM,,,,
"O=C(c1ccc2ccccc2c1)c1cn(-c2ccccc2)nc1C1=Nn2c(SCCCSc3nnc4n3N=C(c3nn(-c5ccccc5)cc3C(=O)c3ccc5ccccc5c3)CS4)nnc2SC1 [Compound 8b, 1,3-Bis((6-(4-(2-naphthoyl)-1-phenyl-1H-pyrazol-3-yl))-7H-[1,2,4]triazolo[3,4-b][1,3,4]-thiadiazin-3-ylthio)propane]",29.6 ± 0.8 µM,,,,
"O=C(c1ccc2ccccc2c1)c1cn(-c2ccccc2)nc1C1=Nn2c(nnc2SCc2ccccc2CSc2nnc3n2N=C(c2nn(-c4ccccc4)cc2C(=O)c2ccc4ccccc4c2)CS3)SC1 [Compound 10, 1,2-Bis((6-(4-(2-naphthoyl)-1-phenyl-1H-pyrazol-3-yl))-7H-[1,2,4]triazolo[3,4-b][1,3,4]-thiadiazin-3-ylthiomethyl)benzene]",31.2 ± 0.9 µM,,,,
"C#Cc1cccc(Nc2ncnc3cc(OCCOC)c(OCCOC)cc23)c1 [Erlotinib, reference compound]",≥ 50 µM,,,,
